Measurements: US20240317748A1, “CARBONYL SUBSTITUTED DIAZASPIRO COMPOUNDS AND ITS USE” (BIONOVA PHARMACEUTICALS (SHANGHAI) LIMITED, priority 2021, published 2024)

What follows are compounds tested on MV-4-11 cells (assay: Cell proliferation assay (CellTiter-Glo), MV-4-11). Details: Homo sapiens, MV4-11, 96 h; MV-4-11 (MLL-AF4), 4 days incubation; read-out: Cell antiproliferation assay MV-4-11 IC50.
Assay type: cell-based, human
Description: (§1) The antiproliferative activity of test compounds was assessed in human leukemia cell lines. The cell line MV4-11, MOLM13 and OCI-AML3, which expresses the MLL fusion protein MLL-AF4, MLL-AF9 and carry the NPM1c gene mutation, respectively, were tested. HL-60 was used as a control cell line containing two MLL wildtype alleles in order to exclude compounds that display general cytotoxic effect. MV4-11 cells were cultured in IMDM supplemented with 10% FBS, MOLM13 and OCI-AML3 cells were cultured in RPMI1640 supplemented with 20% FBS, and HL-60 cells were cultured in IMDM supplemented with 20% FBS. Corresponding cells (MV4-11, MOLM13, OCI-AML3 or HL-60 cell line) were seeded in 100 uL medium per well in 96-well plate (white wall with clear bottom, tissue culture treated, Corning, Cat. No. CLS3903; Lot.No. 30419025). Plates were placed in the CO2 incubator overnight. Compounds solution (2 mM starting, 4-fold serial dilution) were prepared and added to the wells containing 100 μL of the culture medium with HPD300 according to the plate map and centrifuge at 1000 rpm for 1 minutes (200-fold dilution totally). MV4-11, MOLM13, OCI-AML3 and HL-60 cells were incubated with the compounds for 4, 12, 5 and 4 days, respectively, under 5% CO2 at 37° C., respectively. 100 μL of CellTiter-Glo reagent (Promega, Cat. No. G7573, Lot. No. 0000416710) was added to the assay plate by Multidrop Combi instrument, contents were mixed for 10 minutes on an orbital shaker to induce cell lysis. After incubation at room temperature for 10 mins, clear bottom with white back seal was pasted and luminescence with Envision was read.

IC50 [nM] | SMILES
7.7 | CC1(C)[C@@H]2[C@@H](C(=O)N3CCC4(CC3)CN(c3ncnnc3Oc3ccc(F)cc3-c3cncnc3C3CC3)C4)NC[C@@H]21 [Example 81]
9.5 | CC[C@H]1CCN[C@@H]1C(=O)N1CCC2(CC1)CN(c1ncnnc1Oc1ccc(F)cc1C(=O)N(CC)C(C)C)C2 [Example 70]
24.2 | CCN(C(=O)c1cc(F)ccc1Oc1nncnc1N1CC2(CCN(C(=O)[C@H]3NCC[C@@H]3CF)CC2)C1)C(C)C [Example 88]

Continued, compound first:

SMILES | IC50 [nM]
CC(C)N(C(=O)c1cc(F)ccc1Oc1nncnc1N1CC2(CCN(C(=O)[C@H]3NCC[C@@H]3C)CC2)C1)C(C)C [Example 64] | 9.6
N#Cc1ccc(-c2cc(F)ccc2Oc2nncnc2N2CC3(CCN(C(=O)[C@@H]4C[C@@H](F)CN4)CC3)C2)c(C2CC2)c1 [Example 67] | 20.5

What follows are compounds tested on OCI-AML3 cells (assay: Cell proliferation assay (CellTiter-Glo), OCI-AML3). Details: Homo sapiens, OCI-AML-3, 120 h; OCI-AML3 (NPM1c mutation), 5 days incubation; read-out: Cell antiproliferation assay OCI-AML3 IC50.
Assay type: cell-based, human
Description: as §1

IC50 [nM] | SMILES
25.5 | CC1(C)[C@@H]2[C@@H](C(=O)N3CCC4(CC3)CN(c3ncnnc3Oc3ccc(F)cc3-c3cncnc3C3CC3)C4)NC[C@@H]21 [Example 81]
52.7 | CC[C@H]1CCN[C@@H]1C(=O)N1CCC2(CC1)CN(c1ncnnc1Oc1ccc(F)cc1C(=O)N(CC)C(C)C)C2 [Example 70]
102 | CCN(C(=O)c1cc(F)ccc1Oc1nncnc1N1CC2(CCN(C(=O)[C@H]3NCC[C@@H]3CF)CC2)C1)C(C)C [Example 88]

Each compound was assayed on HL-60 cells (assay: Cell proliferation assay (CellTiter-Glo), HL-60 control line). Details: Homo sapiens, 96 h; HL-60 control line (MLL wildtype), 4 days incubation; read-out: Cell antiproliferation assay HL-60 IC50.
Assay type: cell-based, human
Description: as §1

IC50 [nM] | SMILES
> 10000 | CC1(C)[C@@H]2[C@@H](C(=O)N3CCC4(CC3)CN(c3ncnnc3Oc3ccc(F)cc3-c3cncnc3C3CC3)C4)NC[C@@H]21 [Example 81]
> 10000 | CC[C@H]1CCN[C@@H]1C(=O)N1CCC2(CC1)CN(c1ncnnc1Oc1ccc(F)cc1C(=O)N(CC)C(C)C)C2 [Example 70]
> 10000 | CCN(C(=O)c1cc(F)ccc1Oc1nncnc1N1CC2(CCN(C(=O)[C@H]3NCC[C@@H]3CF)CC2)C1)C(C)C [Example 88]

Second part, the compound before the results:

SMILES | IC50 [nM]
CC(C)N(C(=O)c1cc(F)ccc1Oc1nncnc1N1CC2(CCN(C(=O)[C@H]3NCC[C@@H]3C)CC2)C1)C(C)C [Example 64] | > 10000
N#Cc1ccc(-c2cc(F)ccc2Oc2nncnc2N2CC3(CCN(C(=O)[C@@H]4C[C@@H](F)CN4)CC3)C2)c(C2CC2)c1 [Example 67] | > 10000

Same assay, conditions: Homo sapiens, 96 h; HL-60 control line, 10 μM, 4 days incubation; read-out: HL-60 (Pct of inhibition at 10 μM)

SMILES | inhibition at 10 µM [%]
CC(C)N(C(=O)c1cc(F)ccc1Oc1nncnc1N1CC2(CCN(C(=O)[C@H]3NCC[C@@H]3C)CC2)C1)C(C)C [Example 64] | 11.2
N#Cc1ccc(-c2cc(F)ccc2Oc2nncnc2N2CC3(CCN(C(=O)[C@@H]4C[C@@H](F)CN4)CC3)C2)c(C2CC2)c1 [Example 67] | 23.8
CC1(C)[C@@H]2[C@@H](C(=O)N3CCC4(CC3)CN(c3ncnnc3Oc3ccc(F)cc3-c3cncnc3C3CC3)C4)NC[C@@H]21 [Example 81] | 21.4
CC[C@H]1CCN[C@@H]1C(=O)N1CCC2(CC1)CN(c1ncnnc1Oc1ccc(F)cc1C(=O)N(CC)C(C)C)C2 [Example 70] | 1
CCN(C(=O)c1cc(F)ccc1Oc1nncnc1N1CC2(CCN(C(=O)[C@H]3NCC[C@@H]3CF)CC2)C1)C(C)C [Example 88] | 11.4

What follows are compounds tested against T1, Menin-MLL1 (Homo sapiens, UniProt O00255) (assay: Menin-MLL1 inhibition assay (fluorescence polarization, Menin protein + FAM-MLL peptide)). Details: Menin (2-610) isoform 2, FAM-labelled MLL peptide, mP readout; read-out: Biochemical assay Menin-MLL1 IC50.
T1 construct: Menin (2-610) isform2; purchased ChemPartner 2020111101
T1 sequence (O00255 2-610): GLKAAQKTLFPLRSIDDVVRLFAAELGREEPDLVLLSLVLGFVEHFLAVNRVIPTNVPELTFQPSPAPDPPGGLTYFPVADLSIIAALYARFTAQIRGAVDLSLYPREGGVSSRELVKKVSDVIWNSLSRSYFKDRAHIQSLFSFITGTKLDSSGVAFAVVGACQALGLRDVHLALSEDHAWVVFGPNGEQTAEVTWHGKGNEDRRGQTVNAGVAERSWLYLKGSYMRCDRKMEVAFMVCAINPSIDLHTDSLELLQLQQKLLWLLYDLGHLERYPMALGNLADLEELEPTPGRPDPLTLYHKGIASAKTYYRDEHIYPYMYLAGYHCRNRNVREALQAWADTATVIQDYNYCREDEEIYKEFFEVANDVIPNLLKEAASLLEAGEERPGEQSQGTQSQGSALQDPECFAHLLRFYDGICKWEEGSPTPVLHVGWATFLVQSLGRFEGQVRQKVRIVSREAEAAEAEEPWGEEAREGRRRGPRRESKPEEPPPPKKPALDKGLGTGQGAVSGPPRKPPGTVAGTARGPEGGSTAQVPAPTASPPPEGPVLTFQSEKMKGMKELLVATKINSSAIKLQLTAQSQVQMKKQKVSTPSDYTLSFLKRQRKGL
Assay type: binding
Description: 1× assay bu9ffer (Tris 7.5 50 mM, NaCl 50 mM, DTT 1 mM, Tween-20 0.01%) was prepared and test compounds solution (10 mM in DMSO, Sigma, Cat. No. 34869) were transferred to assay plate (384-well plate, Perkin Elmer, Cat. No. 6007279) by Echo. The final fraction of DMSO is 1%. 20 nM of Menin protein (Menin (2-610) isform2, ChemPartner, Cat. No. 2020111101) in 1× assay buffer was added to prepare 2× enzyme solution. Then 10 nM of MLL-peptide (Ac-SRWRFPARPGTGRR-Ahx-Ahx-K(FAM)-NH2, GL Biochem (Shanghai)), Cat. No. 833831/202009220104) in 1× assay buffer was added to prepare 2× substrate solution. 10 μL of 2× enzyme solution was transferred to assay plate or 10 μL of 1× assay buffer for low control group. 10 μL of 2× substrate solution was added to each well to start reaction. mP data on Envision (Ex480/Em535(s), Em535(p)) was collected.
Compound potencies were determined by first calculating % inhibition at each compound concentration according to equation 1:
Inhibition %=(Max−Signal)/(Max−Min)*100 (Equation 1)
Y=Bottom+(Top-Bottom)/(1+(IC50/X)[…]), where Y is % inhibition and X is compound concentration (Equation 2)

IC50 [nM] | SMILES
3.9 | CC1(C)[C@@H]2[C@@H](C(=O)N3CCC4(CC3)CN(c3ncnnc3Oc3ccc(F)cc3-c3cncnc3C3CC3)C4)NC[C@@H]21 [Example 81]
4.6 | CC[C@H]1CCN[C@@H]1C(=O)N1CCC2(CC1)CN(c1ncnnc1Oc1ccc(F)cc1C(=O)N(CC)C(C)C)C2 [Example 70]
3.2 | CCN(C(=O)c1cc(F)ccc1Oc1nncnc1N1CC2(CCN(C(=O)[C@H]3NCC[C@@H]3CF)CC2)C1)C(C)C [Example 88]

More lines, now with the values behind:

SMILES | IC50 [nM]
CC(C)N(C(=O)c1cc(F)ccc1Oc1nncnc1N1CC2(CCN(C(=O)[C@H]3NCC[C@@H]3C)CC2)C1)C(C)C [Example 64] | 1.9
N#Cc1ccc(-c2cc(F)ccc2Oc2nncnc2N2CC3(CCN(C(=O)[C@@H]4C[C@@H](F)CN4)CC3)C2)c(C2CC2)c1 [Example 67] | 2.8

Each compound was assayed on MOLM13 cells (assay: Cell proliferation assay (CellTiter-Glo), MOLM13). Details: Homo sapiens, MOLM-13, 288 h; MOLM13 (MLL-AF9), 12 days incubation; read-out: Cell antiproliferation assay MOLM13 IC50.
Assay type: cell-based, human
Description: as §1

IC50 [nM] | SMILES
16.6 | CC1(C)[C@@H]2[C@@H](C(=O)N3CCC4(CC3)CN(c3ncnnc3Oc3ccc(F)cc3-c3cncnc3C3CC3)C4)NC[C@@H]21 [Example 81]
49.5 | CC[C@H]1CCN[C@@H]1C(=O)N1CCC2(CC1)CN(c1ncnnc1Oc1ccc(F)cc1C(=O)N(CC)C(C)C)C2 [Example 70]
68.6 | CCN(C(=O)c1cc(F)ccc1Oc1nncnc1N1CC2(CCN(C(=O)[C@H]3NCC[C@@H]3CF)CC2)C1)C(C)C [Example 88]

Continued, compound first:

SMILES | IC50 [nM]
CC(C)N(C(=O)c1cc(F)ccc1Oc1nncnc1N1CC2(CCN(C(=O)[C@H]3NCC[C@@H]3C)CC2)C1)C(C)C [Example 64] | 20.2
N#Cc1ccc(-c2cc(F)ccc2Oc2nncnc2N2CC3(CCN(C(=O)[C@@H]4C[C@@H](F)CN4)CC3)C2)c(C2CC2)c1 [Example 67] | 61.1
